Reference: ChEMBL document CHEMBL1135967, “Potent inhibitors of farnesyltransferase and geranylgeranyltransferase-I” (Bioorg Med Chem Lett, 2002)

Assays:
[1] = molecular target: T1, Geranylgeranyl transferase type I (Homo sapiens, UniProt P49354+P53609); assay: Inhibition of the human Geranylgeranyl transferase type I catalyzed incorporation of [3H]GGPP into a biotinylated peptide corresponding to the C-terminus of human K-Ras.; type: functional
[2] = molecular target: Protein farnesyltransferase (Bos taurus, UniProt P29702+P49355); assay: Inhibition of Farnesyltransferase catalyzed incorporation of [3H]-FPP into recombinant Ras-CVIM.; type: functional
[3] = molecular target: Protein farnesyltransferase; assay: Displacement of radiolabeled FTI from Farnesyltransferase in v-Ha-ras-transformed Rat1 cells.; type: cell-based
[4] = molecular target: Protein farnesyltransferase (Homo sapiens, UniProt P49354+P49356); assay: Inhibition of HDJ2 farnesylation in PSN-1 cells; type: functional, cell-based
[5] = molecular target: T1, Geranylgeranyl transferase type I; assay: Inhibition of geranylgeranylation of Rap1a in PSN-1 cells; type: functional, cell-based

Row | SMILES | IC50 [1] [nM] | IC50 [2] [nM] | IC50 [3] [nM] | EC50 [4] [nM] | EC50 [5] [nM]
1 | COc1cc(C(F)(F)F)ccc1-c1ccc(Cn2cncc2CN2CCN(c3cccc(Cl)c3)C(=O)C2)cc1 | 1860 | 392 |  |  | 
2 | O=C1CN(Cc2cncn2Cc2ccc(-c3ccccc3)cc2)CCN1c1cccc(Cl)c1 | 1390 | 12 | 1600 |  | 
3 | N#Cc1ccc2cc1Oc1ccc3cccc(c3c1)N1CCN(CCc3cncn3C2)CC1=O | 16 | 0.25 | 0.19 |  | 
4 | O=C1CN(Cc2cncn2Cc2ccc(-c3ccc(C(F)(F)F)cc3)nc2)CCN1c1cccc(Cl)c1 | 509 | 14 | 159 |  | 
5 | O=C1CN(Cc2cncn2Cc2ccc(-c3cccc(Cl)c3)cc2)CCN1c1cccc(Cl)c1 | 8450 | 17 |  |  | 
6 | O=C1CN(Cc2cncn2Cc2ccc(-c3ccc(Cl)cc3)cc2)CCN1c1cccc(Cl)c1 | 210 | 8.7 | 193 |  | 
7 | O=C1CN(Cc2cncn2Cc2ccc(-c3ccc(OC(F)(F)F)cc3)nc2)CCN1c1cccc(Cl)c1 | 560 | 52 |  |  | 
8 | O=C1CN(Cc2cncn2Cc2ccc(-c3ccc(Cl)cc3)nc2)CCN1c1cccc(Cl)c1 | 2300 | 19 | 250 |  | 
9 | O=C1CN2CCc3cncn3Cc3ccc(-c4ccc(C(F)(F)F)cc4)c(c3)Oc3ccc4cccc(c4c3)N1CC2 | 15.6 | 2.1 | 1.1 |  | 
10 | O=C1CN2CCc3cncn3Cc3ccc(Br)c(c3)Oc3ccc4cccc(c4c3)N1CC2 | 161 | 1.2 | 2 |  | 
11 | COc1cc(Cn2cncc2CCN2CCN(c3cccc(Cl)c3)C(=O)C2)ccc1-c1ccc(C(F)(F)F)cc1 | 151 | 0.17 | 1.2 | 28 | 3400
12 | O=C1CN(Cc2cncn2Cc2ccc(-c3ccc(F)cc3)cc2)CCN1c1cccc(Cl)c1 | 1340 | 15 | 662 |  | 
13 | O=C1CN2CCc3cncn3Cc3ccc(CCCCC(F)(F)F)c(c3)Oc3ccc4cccc(c4c3)N1CC2 | 60 | 3.1 | 0.48 | 6.9 | 800
14 | O=C1CN(Cc2cncn2Cc2ccc(-c3ccc(C(F)(F)F)cc3)cc2)CCN1c1cccc(Cl)c1 | 140 |  | 29 |  | 
15 | COc1cc(Cn2cncc2CN2CCN(c3cccc(Cl)c3)C(=O)C2)ccc1-c1ccc(C(F)(F)F)cc1 | 70 | 1.6 | 12 |  | 
16 | O=C1CN2CCc3cncn3Cc3cccc(c3)Oc3ccc4cccc(c4c3)N1CC2 | 509 | 8 |  |  | 
17 | O=C1CN(Cc2cncn2Cc2ccc(-c3cc(C(F)(F)F)cc(C(F)(F)F)c3)cc2)CCN1c1cccc(Cl)c1 | 1870 | 3500 |  |  | 
18 | O=C1CN2CCc3cncn3Cc3ccc(C#CCCC(F)(F)F)c(c3)Oc3ccc4cccc(c4c3)N1CC2 | 4.8 | 6.1 | 0.81 |  | 
19 | O=C1CN(Cc2cncn2Cc2ccc(-c3cccc(C(F)(F)F)c3)cc2)CCN1c1cccc(Cl)c1 | 2680 | 410 | 662 |  | 
20 | O=C1CN(Cc2cncn2Cc2ccc(-c3cc(Cl)cc(Cl)c3)cc2)CCN1c1cccc(Cl)c1 | 3030 | 35 | 600 |  | 
21 | CCCCc1ccc2cc1Oc1ccc3cccc(c3c1)N1CCN(CCc3cncn3C2)CC1=O | 2480 | 10.3 |  |  | 
22 | N#Cc1ccc(Cn2cncc2CN2CCN(c3cccc(Cl)c3)C(=O)C2)cc1 [L-778123 FREE BASE] |  | 2 |  |  | 
